# Source: patent US20220062166A1, “Self-Gelling Solutions for Administration of Therapeutics to the Inner Ear” (Spiral Therapeutics, Inc., priority 2019, published 2022)
# Entries after “also recorded” stand apart in the source; their conditions may differ.
# Columns and labels:
# [1] = molecular target: T1, caspase 9 (Homo sapiens, UniProt P55211); test: Caspase 9 activation assay with recombinant proteins; assay type: biochemical; details: in %
# T1 sequence (P55211 1-416): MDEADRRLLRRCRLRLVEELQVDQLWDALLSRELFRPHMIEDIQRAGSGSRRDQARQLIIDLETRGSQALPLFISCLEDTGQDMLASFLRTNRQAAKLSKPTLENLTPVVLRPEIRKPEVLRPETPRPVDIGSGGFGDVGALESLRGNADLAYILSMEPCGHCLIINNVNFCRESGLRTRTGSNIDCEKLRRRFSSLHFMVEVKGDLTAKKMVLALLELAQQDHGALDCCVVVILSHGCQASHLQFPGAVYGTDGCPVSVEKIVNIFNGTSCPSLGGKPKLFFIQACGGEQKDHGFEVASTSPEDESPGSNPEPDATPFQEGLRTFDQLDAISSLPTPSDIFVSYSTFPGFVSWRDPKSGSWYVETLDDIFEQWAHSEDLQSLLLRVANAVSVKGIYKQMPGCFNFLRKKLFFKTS
# Method: The specificity of LPT99 was tested in vitro on Apaf1, caspase 3, and caspase 9 (proteins from the apoptotic cascade), and a broad panel of potential pharmacological targets.
# LPT99 inhibited the formation of the apoptosome complex composed by recombinant Apaf1, cyt c, deoxyadenosine triphosphate (dATP), and caspase 9. This activity was measured as inhibition of caspase 3 activation. […] To evaluate the specificity of the inhibition, an assay of caspase 3 and 9 activation was set up with recombinant proteins. The inhibitions of caspase 3 and 9 were 7.6±14.7 and 5.3±3.5, respectively, for LPT99.
# [2] = test system: HEI-OC1 cells; test: Release of mitochondrial cyt c in HEI-OC1 cells with CisPt (flow cytometry); assay type: cell-based
# Method: Flow cytometry was also used to characterize the effect of LPT99 in the release of mitochondrial cyt c in HEI-OC1 cells in vitro with CisPt prevention. Results
# The effect of LPT99 on proliferation of non-apoptotic cells was studied. A549 cells were cultured in the presence of LPT99 for up to 6 days; the cell number was monitored by flow cytometry, and doubling time was calculated.
# [3] = test system: noise-induced ABR threshold shift; test: Noise trauma ABR threshold study; assay type: in vivo; details: at 10 and 21 days; TRAUMA+LPT99 group
# [4] = Cochlear and plasma distribution after TT administration in rats (UPLC-ESI/MS/MS); assay type: in vivo, rat
# Text: Cochleae were harvested and rinsed at several timepoints after intratympanic injection of drug product. Drug concentration (y axis) in cochlear homogenates is expressed as nanograms LPT99 per gram of cochlear homogenate.
# LPT99 cochlear distribution after TT administration was studied in rats. […] LPT99 concentration was quantified with an ultra-performance liquid chromatography tandem mass spectrometry (UPLC-ESI/MS/MS) system.
# Distribution of LPT99 was investigated in cochlea and plasma after a single TT administration in rats. The inhibitor was administered at 50, 100, or 200 μM (dissolved in 5% hydroxypropyl cyclodextrin in physiological serum).
# [5] = molecular target: T2, hERG (Homo sapiens, UniProt Q12809); test: hERG automated patch clamp assay in hERG-CHO cells; assay type: cell-based; details: detection limit 3.2 nM
# T2 construct: expressed in transfected cells; host or cells: CHO
# Text: The potential cardiotoxicity of LPT99 was investigated in an assay using the hERG-CHO cells transfected with the automated patch clamp assay.
# [6] = GLP acute systemic toxicity study, single IP dose, Sprague-Dawley rats; assay type: in vivo, rat
# Method: A GLP acute systemic toxicity study was conducted with LPT99 administered via IP injection in Sprague-Dawley rats. The acute systemic toxicity study was preceded by a non-GLP maximum tolerated dose (MTD) toxicity study, via the same administration and test system, which determined the MTD of LTP99 to be 1000 mg/kg.
# (§1) LPT99 was suspended in vehicle [0.5% w/v methylcellulose and 0.1% v/v TWEEN® 80 in Milli-Q water] and administered intraperitoneally to Sprague-Dawley rats as a single dose at the doses of 100 (low—G2/G2TK), 300 (mid—G3/G3TK), and 750 (high—G4/G4TK) mg/kg body weight. The rats in vehicle control groups (G1/G1TK) received the vehicle alone. The dose volume administered was at an equivolume of 10 mL/kg body weight for all groups.
# (§2) The main toxicity groups consist of 15 rats/sex/group in G1 and G4 groups and 10 rats/sex/group in G2 and G3 groups. The toxicokinetic groups consisted of 6 males and 6 female rats each for the prevention groups, whereas the vehicle control group had 3 male and 3 female rats.
# [7] = Toxicokinetic assessment in the acute IP toxicity study; assay type: in vivo, rat; details: all tested dose levels
# Method: as §1, §2
# Gender related differences were observed.
# [8] = GLP dermal sensitization main study (Buehler test) in guinea pigs; assay type: in vivo, guinea pig; details: 24 or 48 hours after the challenge dose, 797 μM
# Method: A GLP-compliant dermal sensitization study was conducted with LPT99 in guinea pigs. The objective was to assess potential dermal sensitization of LPT99 using the Buehler test (Buehler, Arch Dermatol. 1965, 91, 171-7). The test article, LPT99, was in a neutral-pH, buffered, isotonic solution containing a thermoreversible compound. The vehicle control was buffered at neutral pH and formulated as for the test article; it contained POLOXAMER® 407, disodium phosphate dodecahydrate hydrogen, sodium dihydrogen phosphate dihydrate, sodium chloride, and water for injection. The main study consisted of 2 groups of 20 or 10 guinea pigs. Group 1 was 10 male and 10 female guinea pigs dosed with the highest concentration of LPT99, 797 μM, that was used in the dose range-finding substudy (Group 1). Group 2 was 5 male and 5 female animals that were not dosed with LPT99 (Group 2) during the induction phase and served as naïve controls; Group 2 was challenged with LPT99 on Day 28. LPT99 was topically administered to the skin in the shaved scapula area in a volume of 50 μL on Study Days 0, 7, and 14 (induction doses), and on Day 28 (challenge dose). […] The PDII (post-challenge) was calculated for the test article or vehicle by dividing the sum of the Total Irritation Score by the number of observations (e.g., 3 days×6 animals=18 (number of observations).
# T2 sequence (Q12809 whole entry): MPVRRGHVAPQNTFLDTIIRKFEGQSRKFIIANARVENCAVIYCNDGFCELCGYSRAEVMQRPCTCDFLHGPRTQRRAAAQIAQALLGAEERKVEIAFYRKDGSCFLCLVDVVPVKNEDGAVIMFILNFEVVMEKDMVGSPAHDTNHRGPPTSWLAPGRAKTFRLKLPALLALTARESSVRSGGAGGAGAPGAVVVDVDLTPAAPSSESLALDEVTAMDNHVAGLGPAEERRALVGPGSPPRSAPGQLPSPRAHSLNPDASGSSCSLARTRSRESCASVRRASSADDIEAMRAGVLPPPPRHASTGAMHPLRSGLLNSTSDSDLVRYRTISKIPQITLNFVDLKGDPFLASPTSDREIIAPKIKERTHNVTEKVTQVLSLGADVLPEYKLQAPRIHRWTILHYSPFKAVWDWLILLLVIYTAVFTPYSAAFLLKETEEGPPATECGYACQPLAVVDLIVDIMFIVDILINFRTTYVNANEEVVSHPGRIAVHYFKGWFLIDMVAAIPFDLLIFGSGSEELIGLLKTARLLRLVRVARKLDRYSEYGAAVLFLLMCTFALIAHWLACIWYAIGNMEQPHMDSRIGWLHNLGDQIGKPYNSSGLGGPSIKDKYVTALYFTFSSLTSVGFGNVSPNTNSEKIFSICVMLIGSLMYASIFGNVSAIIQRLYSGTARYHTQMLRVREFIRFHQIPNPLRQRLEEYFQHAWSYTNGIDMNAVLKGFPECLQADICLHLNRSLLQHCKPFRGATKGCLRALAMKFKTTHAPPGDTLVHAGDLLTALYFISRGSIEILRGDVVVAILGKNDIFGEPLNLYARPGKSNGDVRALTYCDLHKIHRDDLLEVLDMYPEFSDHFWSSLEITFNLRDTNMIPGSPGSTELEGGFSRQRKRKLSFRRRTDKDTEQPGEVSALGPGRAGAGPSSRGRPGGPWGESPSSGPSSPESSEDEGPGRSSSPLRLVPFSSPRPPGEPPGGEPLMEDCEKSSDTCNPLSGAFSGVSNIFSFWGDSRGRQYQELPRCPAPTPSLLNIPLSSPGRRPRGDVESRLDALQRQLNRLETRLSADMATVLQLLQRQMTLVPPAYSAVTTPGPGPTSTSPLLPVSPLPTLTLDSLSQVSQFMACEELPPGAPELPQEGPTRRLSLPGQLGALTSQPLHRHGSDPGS
smiles,measurement,setting,value
"COc1ccc2[nH]cc(CCNC(=O)CC3C(=O)N(CCc4ccc(Cl)cc4Cl)CC(=O)N3CCc3cccs3)c2c1 (stereo not shown) [LPT99, 2-(4-(2,4-dichlorophenethyl)-3,6-dioxo-1-(2-(thiophen-2-yl)ethyl)piperazin-2-yl)-N-(2-(5-methoxy-1H-indol-3-yl)ethyl)acetamide]",inhibition of caspase 9,[1],5.3±3.5
same,release of mitochondrial cyt c,"[2]; HEI-OC1 cells, after CisPt alone or pre-incubated with LPT99",68.1% ±1.0%
same,release of cyt c from mitochondria,[2]; cellular model of CisPt-induced apoptosis,decreased release of cyt c from mitochondria
same,ABR Threshold shift after noise exposure,[3],back at basal levels
same,detection in administered cochleae,"[4]; 0.5 and 1 hour, 50, 100, or 200 μM in 5% hydroxypropyl cyclodextrin",detected in all administered cochleae
same,LPT99 in plasma (not found; detection limit),[4]; after TT administration of the LPT99 formulation in a hydrogel,< 2 ng/mL
same,concentrations in contralateral cochleae and plasma,"[4]; all time points, 50, 100, or 200 μM in 5% hydroxypropyl cyclodextrin",BLLQ
same,LPT99 concentrations in plasma (BLLQ),[4]; all time-points and doses,< 2 ng/mL
same,LPT99 concentrations in the contralateral cochleae (BLLQ),[4]; all time-points and doses,< 3 ng/g
same,distribution to cochlea after TT administration,"[4]; rats, FIG. 4",distributed locally to the cochlea; also recorded: distributed to cochlea in a dose-dependent manner
same,distribution to contralateral cochleae or plasma,"[4]; rats, TT",No distribution to the contralateral cochleae or plasma was observed
same,safety margin (hERG IC50 vs plasma detection limit),[5],> 1063
same,food consumption,"[6]; 750 mg/kg, males days 1-7, females days 1-4, vs control",statistically significant reduction in the food consumption
same,tolerability,"[6]; single IP 100, 300, 750 mg/kg",generally safe and well tolerated
same,exposure in females vs males,[7],1.5-5.5 fold
same,Draize scores,[8],No Draize scores were >0
